Results from patent publication US20260001849A1, “NOVEL B0AT1 INHIBITOR” (MITSUBISHI TANABE PHARMA CORPORATION, priority 2023, published 2026).
pIC50: −log10 of the molar value. Where two headings read alike, the source gives them in different places.

Key:
hERG channel = target: T1, hERG channel (Homo sapiens, UniProt Q12809); assay: hERG channel inhibitory activity, whole-cell patch clamp (auto-patch clamp system); assay type: cell-based
T1 construct: host or cells: CHO cells
Description: Evaluation of hERG (Human Ether-a-go-go Related Gene) Channel Inhibitory Activity
The hERG channel inhibitory activity of the compound of the present invention was measured using CHO cells (B′ SYS GmbH) forcibly expressing hERG channels involved in human rapidly active delayed rectifier potassium current (IKr) by the whole-cell patch clamp method using an auto-patch clamp system (SyncroPatch384PE).
Cell suspension, extracellular fluid, intracellular fluid, and measurement plate (NPC-384 plate) were placed in the auto-patch clamp system, and hERG current measurements were performed using the whole-cell patch clamp method. The voltage protocol was set to a holding potential of −80 mV, with a depolarizing pulse preceded by −90 mV (100 ms) and followed by −80 mV (100 ms).
The depolarizing pulse was […] (500 ms), and then the hERG peak current value obtained during the ramp phase was measured when the voltage was lowered to −80 mV over 100 ms. The protocol was applied at 5-second intervals for 5 minutes for each concentration.
SyncroPatch software (manufactured by Nanion) was used for data analysis. Four concentrations were applied incrementally for each test substance, and the average hERG Peak current value obtained from the last three stimuli of each applied concentration was used as the evaluation data. The IC50 value was calculated from the inhibition rate of the current at each concentration of each test substance relative to the pre-application value using Hill's equation (Hill equation) using the relevant software.
The same experiments were also performed using the example compounds described in WO 2023/145804 as comparative example compounds 1-4.

Human BOAT1 = target: T2, Human BOAT1 (Homo sapiens, UniProt Q695T7); assay: hBOAT1 inhibitory test (phenylalanine uptake); assay type: cell-based; details: Human BOAT1 stable expression CHO cells, phenylalanine 0.25 mM, read-out: hB0AT1 IC50
T2 construct: expressed in transfected cells
T2 sequence (Q695T7 1-634): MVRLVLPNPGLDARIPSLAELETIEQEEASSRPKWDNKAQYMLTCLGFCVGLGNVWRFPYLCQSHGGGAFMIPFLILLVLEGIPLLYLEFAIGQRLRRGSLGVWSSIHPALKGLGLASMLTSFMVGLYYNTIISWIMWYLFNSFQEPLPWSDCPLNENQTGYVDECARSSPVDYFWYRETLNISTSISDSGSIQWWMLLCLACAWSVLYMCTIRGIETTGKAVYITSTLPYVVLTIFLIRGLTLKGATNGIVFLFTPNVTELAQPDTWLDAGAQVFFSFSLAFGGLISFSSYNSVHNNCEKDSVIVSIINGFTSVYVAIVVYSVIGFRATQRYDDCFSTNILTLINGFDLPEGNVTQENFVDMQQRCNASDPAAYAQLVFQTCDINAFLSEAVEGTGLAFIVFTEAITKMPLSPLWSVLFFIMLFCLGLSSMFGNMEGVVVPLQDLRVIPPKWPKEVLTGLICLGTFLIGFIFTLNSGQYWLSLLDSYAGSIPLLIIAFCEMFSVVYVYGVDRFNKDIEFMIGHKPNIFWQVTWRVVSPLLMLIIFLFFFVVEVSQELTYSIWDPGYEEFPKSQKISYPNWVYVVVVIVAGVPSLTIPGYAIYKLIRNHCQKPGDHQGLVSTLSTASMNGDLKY
Description: A test compound dissolved in dimethyl sulfoxide (DMSO) was added to a 96 well plate for solid phase radioactivity measurement containing a scintillator at the bottom of the well (final concentration of DMSO 0.5%). DMSO alone as a control and DMSO containing N-(4-bromophenyl)-3,5-dichloro-2-hydroxybenzamide (final concentration […]) for the measurement of BOAT1 non-specific uptake were similarly added at 0.5 μL per well. Human BOAT1 stable expression CHO cells suspended in a buffer (buffer containing 96 mM sodium chloride, 2 mM potassium chloride, 1.8 mM calcium chloride, 1 mM magnesium chloride, 0.01% bovine serum albumin, and 10 mM 2-[4-(2-hydroxyethyl)-1-piperazinyl]ethanesulfonic acid) were added by 90 μL to 75000 cells/well. After standing at ordinary temperature for 30 min or longer, the cells were subjected to a phenylalanine uptake experiment. A buffer containing L-phenylalanine and [3,4,5-3H]-L-phenylalanine was added by 10 μL per well (final concentration of phenylalanine 0.25 mM), and the radioactivity of the plate bottom surface at ordinary temperature was measured with a scintillation counter over time, and the radioactivity value after 100 to 200 min was analyzed.

[1] = [3H]-L-phenylalanine uptake, radioactivity after 100 to 200 min
[2] = comparative example compounds of WO 2023/145804, read-out: hERG inhibition IC50

T1 sequence (Q12809 whole entry): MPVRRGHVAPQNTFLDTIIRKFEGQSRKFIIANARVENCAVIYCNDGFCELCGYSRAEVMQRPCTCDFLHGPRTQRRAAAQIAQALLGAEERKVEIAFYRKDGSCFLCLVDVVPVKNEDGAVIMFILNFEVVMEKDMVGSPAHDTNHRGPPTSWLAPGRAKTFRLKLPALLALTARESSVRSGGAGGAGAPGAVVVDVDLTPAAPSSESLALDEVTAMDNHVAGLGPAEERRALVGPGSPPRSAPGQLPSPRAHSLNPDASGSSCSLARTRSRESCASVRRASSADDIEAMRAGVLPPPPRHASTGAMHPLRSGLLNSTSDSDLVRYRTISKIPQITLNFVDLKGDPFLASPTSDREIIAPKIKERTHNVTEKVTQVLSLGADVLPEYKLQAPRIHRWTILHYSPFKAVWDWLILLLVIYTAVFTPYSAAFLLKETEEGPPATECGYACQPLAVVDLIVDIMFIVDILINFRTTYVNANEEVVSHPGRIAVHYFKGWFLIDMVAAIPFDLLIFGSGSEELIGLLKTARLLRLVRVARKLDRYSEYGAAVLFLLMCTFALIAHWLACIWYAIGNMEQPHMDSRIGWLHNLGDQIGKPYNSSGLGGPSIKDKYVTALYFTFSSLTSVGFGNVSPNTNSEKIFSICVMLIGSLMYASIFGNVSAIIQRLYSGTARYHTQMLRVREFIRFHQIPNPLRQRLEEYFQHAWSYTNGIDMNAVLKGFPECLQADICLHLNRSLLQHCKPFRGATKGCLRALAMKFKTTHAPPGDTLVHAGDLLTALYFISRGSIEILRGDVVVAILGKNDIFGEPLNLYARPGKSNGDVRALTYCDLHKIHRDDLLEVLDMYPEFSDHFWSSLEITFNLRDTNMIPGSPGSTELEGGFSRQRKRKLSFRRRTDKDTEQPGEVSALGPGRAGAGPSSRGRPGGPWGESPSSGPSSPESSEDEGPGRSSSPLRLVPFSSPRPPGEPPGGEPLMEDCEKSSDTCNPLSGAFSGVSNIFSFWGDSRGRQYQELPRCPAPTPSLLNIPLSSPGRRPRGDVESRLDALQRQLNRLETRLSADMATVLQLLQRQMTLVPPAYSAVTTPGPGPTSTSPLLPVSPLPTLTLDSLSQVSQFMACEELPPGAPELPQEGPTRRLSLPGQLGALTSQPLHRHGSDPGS

Structure (SMILES)	pIC50 (hERG channel; read-out: hERG IC50)	pIC50 (Human BOAT1; [1])	pIC50 (Human BOAT1; phenylalanine uptake)	pIC50 (hERG channel; [2])
CC(C(=O)O)c1ccc2c(c1)CCN(C(=O)CNC(=O)/C=C/c1ccc(C(F)(F)F)cc1)C2 (racemic) [I-171]	< 4.52	7.04		
O=C(/C=C/c1ccc(C(F)(F)F)cc1)NCC(=O)N1CCc2cc([C@@H]3C[C@H]3C(=O)O)ccc2C1 (racemic) [I-172, (1R*,2R*)-2-[2-[2-[[(E)-3-[4-(trifluoromethyl)phenyl]prop-2-enoylamino]acetyl]-3,4-dihydro-1H-isoquinolin-6-yl]cyclopropanoic acid]	< 4.52	6.81		
O=C(O)CCCN1CCN(C(=O)CNC(=O)/C=C/c2ccc(C(F)(F)F)cc2F)C(c2cccc(Br)c2)C1 (racemic) [I-234, 4-[3-(3-bromophenyl)-4-[2-[[(E)-3-[2-fluoro-4-(trifluoromethyl)phenyl]prop-2-enoyl]amino]acetyl]piperazin-1-yl]butanoic acid]	< 4.52	7.30		
O=C(O)CCCN1CCN(C(=O)CNC(=O)/C=C/c2ccc(C(F)(F)F)cc2F)C(c2ccc(Cl)cc2)C1 (racemic) [I-236, 4-[3-(4-chlorophenyl)-4-[2-[[(E)-3-[2-fluoro-4-(trifluoromethyl)phenyl]prop-2-enoyl]amino]acetyl]piperazin-1-yl]butanoic acid]	< 4.52	7.03		
CC(C(=O)O)c1ccc2c(c1)CCN(C(=O)CNC(=O)/C=C/c1ccc(C(F)(F)F)cc1)C2 (single isomer, unassigned) [I-286, 2-[2-[2-[[(E)-3-[4-(trifluoromethyl)phenyl]prop-2-enoyl]amino]acetyl]-3,4-dihydro-1H-isoquinolin-6-yl]propanoic acid]	< 4.52		6.52	
CC(C(=O)O)c1ccc2c(c1)CCN(C(=O)CNC(=O)/C=C/c1ccc(C(F)(F)F)cc1)C2 (single isomer, unassigned) [I-287, 2-[2-[2-[[(E)-3-[4-(trifluoromethyl)phenyl]prop-2-enoyl]amino]acetyl]-3,4-dihydro-1H-isoquinolin-6-yl]propanoic acid]	< 4.52		6.75	
O=C(/C=C/c1ccc(C(F)(F)F)cc1)NCC(=O)N1CCc2cc([C@@H]3C[C@H]3C(=O)O)ccc2C1 (single isomer, unassigned) [I-288, (1R*,2R*)-2-[2-[2-[[(E)-3-[4-(trifluoromethyl)phenyl]prop-2-enoyl]amino]acetyl]-3,4-dihydro-1H-isoquinolin-6-yl]cyclopropane-1-carboxylic acid]	< 4.52		6.82	
O=C(/C=C/c1ccc(C(F)(F)F)cc1)NCC(=O)N1CCc2cc([C@@H]3C[C@H]3C(=O)O)ccc2C1 (single isomer, unassigned) [I-289, (1R*,2R*)-2-[2-[2-[[(E)-3-[4-(trifluoromethyl)phenyl]prop-2-enoyl]amino]acetyl]-3,4-dihydro-1H-isoquinolin-6-yl]cyclopropane-1-carboxylic acid]	< 4.52		7.06	
O=C(O)CCCN1CCN(C(=O)CNC(=O)/C=C/c2ccc(C(F)(F)F)cc2F)C(c2ccccc2)C1 (single isomer, unassigned) [I-290, 4-[4-[2-[[(E)-3-[2-fluoro-4-(trifluoromethyl)phenyl]prop-2-enoyl]amino]acetyl]-3-phenylpiperazin-1-yl]butanoic acid]	< 4.52		6.92	
CN1CCN(C(=O)CNC(=O)/C=C/c2ccc(C(F)(F)F)cc2)C(c2ccccc2)C1 (centres unmarked) [Comparative Example compound 1, reference compound]				5.68
O=C(/C=C/c1ccc(C(F)(F)F)cc1)NCC(=O)N1CCNCC1 [Comparative Example compound 2, reference compound]				5.06
CN1CCN(C(=O)CNC(=O)/C=C/c2ccc(C(F)(F)F)cc2)CC1 [Comparative Example compound 3, reference compound]				5.44
O=C(/C=C/c1ccc(C(F)(F)F)cc1)NCC(=O)N1CCc2ncsc2C1 [Comparative Example compound 4, reference compound]				5.22
O=C(O)Cc1cc(Cl)c2c(c1)CCN(C(=O)CNC(=O)/C=C/c1ccc(C(F)(F)F)cc1F)C2 [I-141]	< 4.52	7.47		
O=C(O)Cc1cc(F)c2c(c1)CCN(C(=O)CNC(=O)/C=C/c1ccc(C(F)(F)F)cc1)C2 [I-143]	< 4.52	6.82		
O=C(O)Cc1cc(Cl)c2c(c1)CCN(C(=O)CNC(=O)/C=C/c1ccc(C(F)(F)F)cc1)C2 [I-145]	< 4.52	7.07		
O=C(O)Cc1ccc2c(c1Cl)CCN(C(=O)CNC(=O)/C=C/c1ccc(C(F)(F)F)cc1)C2 [I-146]	4.52	7.17		
N#Cc1cc(CC(=O)O)cc2c1CN(C(=O)CNC(=O)/C=C/c1ccc(C(F)(F)F)cc1F)CC2 [I-147]	< 4.52	7.00		

Structure (SMILES)	pIC50 (hERG channel; read-out: hERG IC50)	pIC50 (Human BOAT1; [1])	pIC50 (Human BOAT1; phenylalanine uptake)	pIC50 (hERG channel; [2])
N#Cc1cc(CC(=O)O)cc2c1CN(C(=O)CNC(=O)/C=C/c1ccc(C(F)(F)F)cc1)CC2 [I-148]	< 4.52	6.68		
Cc1cc(CC(=O)O)cc2c1CN(C(=O)CNC(=O)/C=C/c1ccc(C(F)(F)F)cc1)CC2 [I-149]	< 4.52	6.88		
N#Cc1c(CC(=O)O)ccc2c1CCN(C(=O)CNC(=O)/C=C/c1ccc(C(F)(F)F)cc1)C2 [I-150]	4.60	6.74		
N#Cc1c(CC(=O)O)ccc2c1CCN(C(=O)CNC(=O)/C=C/c1ccc(C(F)(F)F)cc1F)C2 [I-151]	< 4.52	7.24		
O=C(O)CCc1nn2c(c1Br)CN(C(=O)CNC(=O)/C=C/c1ccc(S(F)(F)(F)(F)F)cc1)CC2 [I-153]	< 4.52	6.84		
N#Cc1cc(CC(=O)O)cc2c1CN(C(=O)CNC(=O)/C=C/c1ccc(I)cc1F)CC2 [I-157]	< 4.52	6.99		
O=C(O)Cc1ccc2c(c1)CCN(C(=O)CNC(=O)/C=C/c1ccc(I)cc1F)C2 [I-158]	< 4.52	7.08		
O=C(/C=C/c1ccc(C(F)(F)F)cc1)NCC(=O)N1CCc2cc(C3(C(=O)O)CC3)ccc2C1 [I-166]	< 4.52			
COc1cc2c(cc1CC(=O)O)CCN(C(=O)CNC(=O)/C=C/c1ccc(C(F)(F)F)cc1)C2 [I-176]	< 4.52			
O=C(O)Cc1cc2c(s1)CCN(C(=O)CNC(=O)/C=C/c1ccc(C(F)(F)F)cc1)C2 [I-178]	< 4.52			
O=C(O)CCCN1CCN(C(=O)CNC(=O)/C=C/c2ccc(C(F)(F)F)cc2F)CC1C(F)(F)F (centres unmarked) [I-198]	< 4.52			
C[C@@H]1CN(CCCC(=O)O)[C@@H](C)CN1C(=O)CNC(=O)/C=C/c1ccc(C(F)(F)F)cc1F [I-235]	< 4.52			
C[C@H]1CN(C(=O)CNC(=O)/C=C/c2ccc(C(F)(F)F)cc2F)[C@@H](c2ccccc2)CN1CCCC(=O)O [I-252]	< 4.52			
O=C(/C=C/c1ccc(C(F)(F)F)cc1F)NCC(=O)N1CCCC(c2ccccc2C(=O)O)C1 (centres unmarked) [I-253]	4.58			
O=C(O)CCCN1CCN(C(=O)CNC(=O)/C=C/c2ccc(C(F)(F)F)cc2F)C(c2ccc(Cl)c(F)c2)C1 (centres unmarked) [I-267]	< 4.52			
O=C(O)CCCN1CCN(C(=O)CNC(=O)/C=C/c2ccc(C(F)(F)F)cc2F)CC1C1CCCCC1 (centres unmarked) [I-271]	4.79			
O=C(O)CCCN1CCN(C(=O)CNC(=O)/C=C/c2ccc(C(F)(F)F)cc2F)C(c2cccnc2)C1 (centres unmarked) [I-403]			5.76	
